Measured values reported in patent US20210121482A1, “WITHANOLIDES FOR THE TREATMENT OF CACHEXIA” (University of Louisville Research Foundation, Inc., priority 2019, published 2021).

Key:
[1] = tested on: TA muscle myofibers (MyHC I, IIa, IIb); experiment: Skeletal muscle fiber-type immunostaining; format: in vivo, mice
Experimental: Skeletal Muscle Fiber-type Immunostaining: To determine the composition of different types and gross composition of skeletal muscle fibers, 10 μm thick transverse sections were made from TA muscles, a hydrophobic boundary was drawn around the section, and then blocked with 5% goat serum and 2% bovine serum albumin (BSA) in PBS for 30 minutes. The sections were then incubated for one hour with monoclonal antibodies against myosin heavy chain (MyHC) isoforms type I, IIa, and IIb using clone BA-D5, […], and BF-F3, respectively (Developmental Studies Hybridoma Bank, Iowa City, Iowa, USA). The following secondary antibodies were then used for detection after 1-2 hours of incubation period: anti-Mouse IgG2b (γ2b) CF™ 350 antibody produced in goat, anti-Mouse IgG1 (yl) CF™ 568 antibody produced in goat, and Alexa Fluor-488 goat anti-mouse IgM. Fluorescence images were captured with a Nikon TiE 3000 inverted microscope, the single-color channels were merged, and percentage of each fiber-type in whole muscle section was recorded. Nonspecific background staining was performed using the above protocol but omitting the inclusion of the primary antibodies. Antibodies BA-D5, SC-71, and BF-F3 were deposited to the DSHB by Schiaffino, S. (DSHB Hybridoma Product BA-D5, SC-71, and BF-F3).

[2] = tested on: TA, GA and QF muscles; experiment: Muscle mass and TA myofiber CSA (Example 2); format: in vivo, mice
Excerpt: Histology and Morphometric Analysis of Skeletal Muscle: Select muscles of the lower limb of the mice were isolated, flash frozen in liquid nitrogen, mounted in O.C.T. embedding medium, and then sectioned using a microtome cryostat. To assess tissue morphology, 10 μm thick transverse sections were cut from the mid-belly of the tibialis anterior (TA) and then subjected to Hematoxylin and Eosin (H&E) staining. Images of H&E-stained TA muscle sections were quantified using Fiji software (National Institute of Health software) to measure myofiber cross-sectional area (CSA). Skeletal myofiber CSA was calculated by analyzing ˜500-700 myofibers per muscle as previously described (32).
Post-mortem, select muscles of the lower extremities, including tibialis anterior (TA), gastrocnemius (GA), and quadriceps femoris (QF), were collected and weighed to detect changes in muscle mass, with results shown in FIG. 14A-14C, respectively. Muscle weights were normalized by the initial body weight (I.B.W.) to account for differences in the size of the mouse/muscle at baseline, while excluding the confounding effect of tumor burden on body weight.

[3] = tested on: satellite cells; experiment: Satellite cell IHC (Pax7, MyoD, Laminin) in TA muscle; format: in vivo, mice
Experimental: Due to the role of WFA in inhibiting canonical NF-κ B signaling and the effect ovarian cancer has on this signaling pathway, WFA and the xenograft model were tested to measure induction or activation of satellite cells. The TA muscle was subjected to immunofluorescent immunohistochemical (IHC) staining for Pax7 (a marker of satellite cells), MyoD (a marker of myogenic differentiation), and Laminin (a marker of the basal lamina) (FIG. 15A). As accurate IHC detection of satellite cells can be challenging, individual color channels were compared against negative control slides to optimize visualization of satellite cells, minimize nonspecific background staining, and rule out false positives (Pax7^+/DAPI− cells) (37).
Initially, the number of satellite cells per field (normalized by the number of Laminin+ myofibers) was quantified to assess whether the model of ovarian cancer or WFA treatment affected the satellite cell population at large. […] There was a significant increase in the amount of Pax7+ cells in the tumor-bearing vehicle-treated group (0.34±0.01) compared to the tumor-free vehicle-treated and tumor-free WFA 2 mg/kg groups, although there was a significant reduction compared to the tumor-free WFA 4 mg/kg group (p<0.0001 for all comparisons). […] A small, but statistically significant decrease in the tumor-bearing WFA 4 mg/kg group was observed compared to the tumor-bearing vehicle-treated group (p=0.0004). […] Due to the systemic nature of WFA treatment, the tumor-specific uptake of WFA may have diminished the effect observed on skeletal muscle with respect to satellite cell activation in the tumor-bearing animals compared to the tumor-free animals.
After assessing changes in the gross number of satellite cells, the myogenic status was assessed to determine if the satellite cells were functionally activated. Satellite cells that are Pax7+/MyoD− are self-renewing or returning to quiescence, whereas satellite cells that are Pax7+/MyoD+ have committed to the myogenic lineage and will facilitate in muscle repair (6, 38). […] It was not feasible to enumerate the population of Pax7−/MyoD+ cells in response to the xenografted cancer or WFA treatment due to experimental limitations. However, distinct populations of Pax7+/MyoD− and Pax7+/MyoD+ cells were present (FIGS. 15C and 15D).

[4] = tested on: Tn-I, AT2R and pro-inflammatory cytokines in the heart; experiment: qPCR of heart; format: in vivo, Mus musculus; details: for relative transcript level of AT2R in the heart: compared to control
Experimental: (§1) Total RNA Extraction and qPCR: Isolation of total RNA from xenografted tumor samples was performed using an RNeasy® Mini Kit (Qiagen Catalog #74104) according to the manufacturer's instructions. Isolation of total RNA from skeletal muscle was performed using an RNeasy® Fibrous Tissue Mini Kit (Qiagen Catalog #74704) according to the manufacturer's instructions. First strand cDNA was synthesized using 1 μg of purified RNA and a commercially available kit (iScript™ cDNA synthesis, Bio-Rad Catalog #170-8891), Quantification of mRNA expression was performed similar to as previously described (Hindi and Kumar, 2016) using the SYBR Green dye method on a StepOnePlus™ system (Applied Biosystems) using gene-specific primers, as shown in Table 1.
(§2) Isolation and preparation of total RNA was performed as described in Example 1.

[5] = tested on: angiotensinogen (AGT); experiment: qPCR of angiotensinogen in tumor tissues; format: in vivo, Homo sapiens
Experimental: as §1, §2

[6] = tested on: A2780; experiment: Effect on ovarian cancer cell line A2780; format: cell-based; details: A2780 cells; through reactive oxygen species production and DNA damage

CC1=C(CO)C(=O)O[C@@H]([C@@H](C)[C@H]2CC[C@H]3[C@@H]4C[C@H]5O[C@]56[C@@H](O)C=CC(=O)[C@]6(C)[C@H]4CC[C@]23C)C1 [WFA, (4β,5β,6β,22R)-4,27-Dihydroxy-5,6:22,26-diepoxyergosta-2,24-diene-1,26-dione]
proportion of Type IIb myofibers in TA muscle ([1]; 2 and 6 mg/kg, vs control and vehicle treated groups): significantly reduced in the WFA treated groups in a dose-dependent manner | percentage of Type IIa myofibers in TA muscle ([1]; 2 and 6 mg/kg, vs vehicle treated and control groups): significant increase in Type IIa myofibers | percentage of Type I myofibers in TA muscle ([1]; all groups): no significant differences were found | percentage of Type IIx myofibers in TA muscle ([1]; all groups): no significant differences were elucidated upon post hoc analysis | normalized wet weight of TA and GA muscles ([2]; tumor-bearing, 2 and 4 mg/kg, vs vehicle-treated): statistically significant increase in normalized wet weight of the TA and GA muscles | average myofibrillar cross-sectional area (CSA) in TA muscle ([2]; tumor-bearing, WFA 2 mg/kg): 1629.72±94.96 μm2 | average myofibrillar cross-sectional area (CSA) in TA muscle ([2]; tumor-bearing, WFA 4 mg/kg): 1748.13±68.90 μm2 | normalized weight of TA, GA and QF muscles ([2]; tumor-free, 4 mg/kg, vs vehicle-treated, normalized by initial body weight): significant increase in normalized weight of the TA, GA, and QF muscles | average myofibrillar cross-sectional area (CSA) in TA muscle ([2]; tumor-free, WFA 2 mg/kg): 1916.39±85.72 μm2 | average myofibrillar cross-sectional area (CSA) in TA muscle ([2]; tumor-free, WFA 4 mg/kg): 1904.98±80.50 μm^2 | Pax7+ cells normalized by number of Laminin+ myofibers ([3]; tumor-bearing, WFA 2 mg/kg): 0.26±0.01 | proportion of differentiating satellite cells (Pax7+/MyoD+) ([3]; tumor-bearing, WFA 2 mg/kg): 48.85±1.63% | proportion of proliferating satellite cells (Pax7+/MyoD−) ([3]; tumor-bearing, WFA 2 mg/kg): 51.15±1.63% | Pax7+ cells normalized by number of Laminin+ myofibers ([3]; tumor-bearing, WFA 4 mg/kg): 0.31±0.01 | proportion of differentiating satellite cells (Pax7+/MyoD+) ([3]; tumor-bearing, WFA 4 mg/kg): 52.79±1.99% | proportion of proliferating satellite cells (Pax7+/MyoD−) ([3]; tumor-bearing, WFA 4 mg/kg): 47.21±1.99% | Pax7+ cells normalized by number of Laminin+ myofibers ([3]; tumor-free, WFA 2 mg/kg): 0.28±0.02 | proportion of differentiating satellite cells (Pax7+/MyoD+) ([3]; tumor-free, WFA 2 mg/kg): 60.73±2.28% | proportion of proliferating satellite cells (Pax7+/MyoD−) ([3]; tumor-free, WFA 2 mg/kg): 39.27±2.28% | Pax7+ cells normalized by number of Laminin+ myofibers ([3]; tumor-free, WFA 4 mg/kg): 0.42±0.01 | proportion of differentiating satellite cells (Pax7+/MyoD+) ([3]; tumor-free, WFA 4 mg/kg): 61.37±1.49% | proportion of proliferating satellite cells (Pax7+/MyoD−) ([3]; tumor-free, WFA 4 mg/kg): 38.63±1.49% | relative transcript levels of TNFα, IL-6, MIP-2, IFNγ in the heart ([4]; tumor-bearing WFA-treated groups): significantly reduced in the WFA-treated groups | transcript levels of IFNγ in the heart ([4]; tumor-bearing WFA-treated groups, normalized to tumor-bearing vehicle): significantly reduced in the WFA-treated groups | relative transcript level of AT2R in the heart ([4]; tumor-bearing, WFA 2 mg/kg): 3.5±1.8 fold | relative transcript level of AT2R in the heart ([4]; tumor-bearing, WFA 4 mg/kg): 5.2±3.2 fold | reduction in relative transcript levels of Troponin-I (Tn-I) in heart ([4]; tumor-bearing, both doses, vs tumor-bearing vehicle): significantly blunted | relative transcript levels of angiotensinogen in tumor samples ([5]; WFA 2 mg/kg): 0.3676±0.252 fold change | relative transcript levels of angiotensinogen in tumor samples ([5]; WFA 4 mg/kg): 0.0694±0.144 fold change | cell death [6]: autophagic cell death
